Drawing on PubChem BioAssay (NCI), this text covers GI50 and TGI for twelve compounds.

Among the test systems are HL-60(TB) leukemia; IGROV1 ovarian; OVCAR-4 ovarian; U251 CNS; 786-0 renal; SNB-19 CNS; A498 renal; SK-MEL-5 melanoma; UACC-62 melanoma; HCT-15 colon.
Test in all cases: growth of human tumour cells (NCI), 48 h

Several values for one entry are separate records, joined by “and”; a condition that tells them apart may be missing. Equal entries are not always repeated.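 Five compound concentrations were applied to cells in 96-well plates for 48 hours; endpoints were derived by simple linear interpolation of the resulting dose-response curve. GI50 marks 50% less growth. TGI marks complete inhibition of growth.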

For `CCOC(=O)[C@@H](N)CCC(=O)N[C@@H](CSCc1ccccc1)C(=O)N[C@@H](C(=O)OCC)c1ccccc1`, the GI50 in the test with HL-60(TB) leukemia was 18.5 µM; in the test on IGROV1 ovarian, 19.3 µM; in the test on OVCAR-4 ovarian it was 27.5 µM; in the test with U251 CNS, 16.6 µM; with 786-0 renal, 17.7 µM; in the test with SNB-19 CNS, 18.8 µM. The GI50 with A498 renal is 17.2 µM; with SK-MEL-5 melanoma, 14.2 µM; in the test with UACC-62 melanoma, 17.1 µM; with HCT-15 colon, 33.7 µM. Further, the TGI is 39.5 µM with HL-60(TB) leukemia; 36.4 µM in the test with IGROV1 ovarian; > 57.1 µM in the test on OVCAR-4 ovarian; 31.3 µM with U251 CNS; 33.7 µM with 786-0 renal; 38 µM with SNB-19 CNS. For the same compound, the TGI in the test with A498 renal is 38.8 µM; in the test with SK-MEL-5 melanoma, 27.5 µM; with UACC-62 melanoma, 33 µM; with HCT-15 colon, > 71.2 µM.
Turning to `N#CC(NNC(=O)Cc1ccccc1)c1c(O)ccc2ccccc12` (stereo not drawn), the TGI with HL-60(TB) leukemia is > 46 µM; in the test with IGROV1 ovarian, > 76.8 µM; in the test with OVCAR-4 ovarian it was 51 µM; in the test with U251 CNS, 45 µM; with 786-0 renal it was 39.2 µM; with SNB-19 CNS it was > 64.4 µM. Also, the TGI in the test with A498 renal is > 72.5 µM; in the test on SK-MEL-5 melanoma it was 15.7 µM; with UACC-62 melanoma, 12 µM; in the test with HCT-15 colon it was > 100 µM.
On to `NP(=O)(Oc1c2occc2cc2ccc(=O)oc12)N(CCCl)CCCl` (stereo not drawn), for which the TGI in the test with HL-60(TB) leukemia, with IGROV1 ovarian, in the test with OVCAR-4 ovarian, with U251 CNS, with 786-0 renal and in the test with SNB-19 CNS was > 100 µM in each case. For the same compound, the TGI in the test on A498 renal, with SK-MEL-5 melanoma, in the test with UACC-62 melanoma and with HCT-15 colon was > 100 µM throughout.
As for `COc1cc2c(c(OC)c1OC)-c1ccc(OC)c(=O)cc1[C@@H](NC(=O)c1ccccc1)CC2`, the TGI in the test with HL-60(TB) leukemia is < 0.013 µM; in the test with IGROV1 ovarian, 30 µM and 55.2 µM; with OVCAR-4 ovarian, 30 µM and > 100 µM; with U251 CNS, 4.06 µM; in the test on 786-0 renal it was 30 µM and 47.5 µM; in the test on SNB-19 CNS, 30 µM and 46.3 µM. For the same compound, the TGI in the test on UACC-62 melanoma was 30 µM and 59.7 µM. Further, the GI50 with IGROV1 ovarian was 0.00587 µM; in the test with OVCAR-4 ovarian, 28.1 µM and 13.4 µM; with 786-0 renal, 0.0114 µM; with SNB-19 CNS it was < 0.003 µM and 0.0157 µM; with A498 renal, < 0.003 µM; with SK-MEL-5 melanoma, 0.00569 µM. Also, the GI50 in the test on UACC-62 melanoma is < 0.003 µM; in the test on HCT-15 colon, 0.0444 µM.
As to `N#C/C(=C1C=C(Br)/C(=N\O)C=C\1Cl)c1cccc2ccccc12`, the TGI was 11.6 µM with HL-60(TB) leukemia; > 100 µM with IGROV1 ovarian; 7.6 µM in the test on OVCAR-4 ovarian; 10.7 µM in the test with U251 CNS; 13.6 µM in the test on 786-0 renal; 32.1 µM in the test with SNB-19 CNS. Also, the TGI in the test with A498 renal was 21.5 µM; with SK-MEL-5 melanoma, 13.4 µM; in the test with UACC-62 melanoma, 15.8 µM; with HCT-15 colon, 25.6 µM.
`COc1ccc(/C=C/c2ccnc3ccccc23)c(OC)c1`: the TGI in the test on HL-60(TB) leukemia was 6.91 µM; in the test on IGROV1 ovarian it was > 10 µM; in the test on OVCAR-4 ovarian, > 10 µM; in the test on U251 CNS, > 10 µM; with 786-0 renal, > 10 µM; in the test on SNB-19 CNS it was > 10 µM. The TGI with A498 renal, with SK-MEL-5 melanoma, in the test on UACC-62 melanoma and in the test with HCT-15 colon was > 10 µM throughout.
In the case of `C[C@@H]1CC(=O)C2CCCC1C2=O` (stereo partly drawn), the TGI in the test with HL-60(TB) leukemia, in the test with IGROV1 ovarian, in the test with OVCAR-4 ovarian, in the test with U251 CNS, in the test on 786-0 renal and in the test with SNB-19 CNS was > 100 µM each time. Also, the TGI with A498 renal, in the test with SK-MEL-5 melanoma, in the test with UACC-62 melanoma and with HCT-15 colon was > 100 µM throughout.
Turning to `CC(=O)CSCc1ccccn1`, the TGI is 64.5 µM in the test on HL-60(TB) leukemia; > 100 µM in the test with IGROV1 ovarian; > 100 µM in the test on OVCAR-4 ovarian; > 100 µM with U251 CNS; > 100 µM in the test on 786-0 renal; > 100 µM with SNB-19 CNS. For the same compound, the TGI in the test on A498 renal, in the test with SK-MEL-5 melanoma, in the test on UACC-62 melanoma and with HCT-15 colon was > 100 µM throughout.
As to `Cc1cccc(NC(=O)/C(=N\NC(C)(C)C)C2NC(=S)NC2=O)c1C` (stereo not drawn), the TGI with HL-60(TB) leukemia, in the test with IGROV1 ovarian, with OVCAR-4 ovarian, in the test on U251 CNS, in the test with 786-0 renal and with SNB-19 CNS was > 100 µM in each case. In addition, the TGI with A498 renal, in the test with SK-MEL-5 melanoma, in the test on UACC-62 melanoma and in the test on HCT-15 colon was > 100 µM in each case.
Take `CC(C)(C)c1cc(Br)c(O)c(CN(Cc2cc(C(C)(C)C)cc(Br)c2O)C2CCCCC2)c1`: the TGI is 35.8 µM with HL-60(TB) leukemia; 28.7 µM in the test with IGROV1 ovarian; 22.3 µM in the test with OVCAR-4 ovarian; 26.8 µM in the test on U251 CNS; 27.7 µM with 786-0 renal; 27.1 µM in the test with SNB-19 CNS. The TGI was 26.3 µM in the test on A498 renal, 22.8 µM in the test on SK-MEL-5 melanoma, 25.3 µM in the test with UACC-62 melanoma and 25.4 µM in the test on HCT-15 colon.
As to `COc1ccc(Nc2c3ccccc3nc3occc23)cc1`, the GI50 in the test on HL-60(TB) leukemia was 1.47 µM; in the test with IGROV1 ovarian it was 7.66 µM; in the test with OVCAR-4 ovarian it was 16.9 µM; in the test on U251 CNS it was 3.85 µM; with 786-0 renal it was 5.83 µM; in the test with SNB-19 CNS, 2.87 µM. Further, the GI50 in the test with A498 renal was 4.5 µM; in the test with SK-MEL-5 melanoma, 1.32 µM; in the test on UACC-62 melanoma, 0.342 µM; with HCT-15 colon it was 0.336 µM. Also, the TGI was > 100 µM with IGROV1 ovarian; > 100 µM with OVCAR-4 ovarian; > 100 µM in the test with U251 CNS; > 51.5 µM with 786-0 renal; > 48.5 µM in the test with SNB-19 CNS; 21.8 µM with A498 renal. The figures for the TGI in the test on SK-MEL-5 melanoma and in the test with HCT-15 colon were 13.4 µM and 14.1 µM, respectively.
With `CN1c2ccc(Cl)cc2C(=O)NC1c1ccc([N+](=O)[O-])s1` (stereo not drawn), the TGI in the test on HL-60(TB) leukemia is 49.3 µM; with IGROV1 ovarian it was 31.5 µM; with OVCAR-4 ovarian it was 71.5 µM; with U251 CNS, 32.5 µM; in the test on 786-0 renal, 30.8 µM; in the test with SNB-19 CNS, > 100 µM. Besides, the TGI was determined as 32.8 µM in the test with A498 renal, 31.6 µM with SK-MEL-5 melanoma, 26.3 µM in the test with UACC-62 melanoma and 35.9 µM with HCT-15 colon.
